How the values were obtained:
[1] = test system: leukemia cells of L-1210 mouse; experiment: Activation for macrophages: cytostatic rate of intraperitoneal macrophages on leukemia cells; format: in vivo; conditions: CDF1 mouse i.p. 500 μg/ml, 0.2 ml; macrophages collected after 4 days; macrophages:L-1210 cells 20:1; 72 hours
Protocol: (4) Activation for macrophages
A test solution of a compound of the invention in physicological saline (500 μg/ml, 0.2 ml) was intraperioneally injected into CDF1 mouse (one group consisting of mice). Intraperioneal macrophages which were collected after 4 days and leukemia cells of L-1210 mouse were mixed at the cell ratio of 20 and 1. Each 200 μl of the mixture was put on a microplate having 96 holes. After 72 hours, numbers of cells in each holes were counted, and cytostatic rate of the mixture was measured.

[2] = test system: Psud. aeruginosa (NCTC 10490); experiment: Phylactic effect, Psud. aeruginosa infection; format: in vivo; conditions: ICR mouse; compound 500 μg/ml, 0.2 ml i.p. one day before infection i.p. 1×10^7 /mouse; after 7 days of infection
Protocol: (§1) A solution of a compound of the invention in physiological saline (500 μg/ml), 0.2 ml was intraperitoneally injected into ICR mouse (20 mice per group). After a day, E. coli (JC-2) and Psud. aeruginosa (NCTC 10490) were incubated through intraperitoneal route so as to be at concentration of 1×10^7 /mouse. Survival rate after 7 days of infection was measured.

[3] = test system: B type hepatitis vaccine (HBs); experiment: Enhancing effect on hepatitis vaccine (adjuvant activity), IgG antibody by ELISA; format: in vivo; conditions: CDF1 mouse; for Anti HBs-ELISA unit, Primary response serum: i.p. 0.2 ml compound (100 μg/ml) mixed with HBs vaccine, serum at 3 weeks; for Anti HBs-ELISA unit, Secondary response serum: second i.p. injection of 0.2 ml test solution, serum at 2 weeks
Protocol: (2) Enhancing effect on hepatitis vaccine (adjuvant activity)
A compound of the invention was dissolved or suspended in physiological saline (100 μg/ml), and mixed with a solution of B type hepatitis vaccine (HBs) in physiological saline (100 μg/m) at an equivalent weight ratio to obtain the test solution. A solution excluded the compound of the invention from the test solution was used as control.
The test solution (0.2 ml) was intraperitoneally injected into CDF1 mouse (one group consisting of 10 mice). At 3 weeks after the administration, a blood was taken from the intravenous vein in eyeground of each the mice and centrifuged to obtain serum (primary response serum). Further, 0.2 ml of the test solution was again intraperitoneally injected into each mice, and at 2 weeks stage, serum was separated in the similar way (secondary response serum).
Value for IgG antibody against B type hepatitis virus of the resulting serum was measured by ELISA method.

E. coli (JC-2) = experiment: Phylactic effect, E. coli infection; format: in vivo; conditions: ICR mouse; compound 500 μg/ml, 0.2 ml i.p. one day before infection i.p. 1×10^7 /mouse; after 7 days of infection
Protocol: as §1

BCG killed vaccine = experiment: Enhancing action on BCG vaccine (adjuvant activity), 24 hours foot-pad test; format: in vivo; conditions: ICR mouse; s.c. 0.2 ml mixture of BCG killed vaccine (100 μg/ml) and compound in Freund's incomplete adjuvant (1000 μg/ml); tuberculin 10 μg after 14 days; measured after 24 hours
Protocol: (1) Enhancing action on BCG vaccine (adjuvant activity)
0.2 ml of an equivalent weight mixture of a solution of BCG killed vaccine in physiological saline (100 μg/ml) and a solution of a compound of the invention in Freund's incomplete adjuvant (1000 μg/ml) was subcutaneously injected to the back of ICR mouse (one group consisting of 7 mice). After 14 days, 10 μg of tuberculin was intradermally injected into the hind foot-pad. Swelling of the foot-pad was measured after 24 hours (24 hours foot-pad test).
The control is the above mentioned mixture excluded a compound of the invention.

Meth A fibrosarcomas = experiment: Antitumour effect, Meth A fibrosarcoma; format: in vivo; conditions: BALB/C mouse; s.c. 0.2 ml mixture of Meth A cells (1×10^6 cells/ml) and compound (1,000 μg/ml); after 35 days
Protocol: Meth A fibrosarcomas were suspended in phosphate buffered physiological saline (1×10^6 cells/ml). Separately, a solution of a compound of the invention in physiological saline was prepared (1,000 μg/ml). An equivalent weight mixture of these two solution (0.2 ml) was subcutaneously injected into BALB/C mouse (20 mice per group). Survival rate after 35 days was measured.

[4] = test system: influenza HA vaccine (A/Bangkok/10/83 strain, H1N1); experiment: Enhancing effect on influenza HA vaccine (adjuvant activity), ELISA; format: in vivo; conditions: CDF1 mouse, compound (100 μg/ml) mixed with influenza HA vaccine (100 CCA/ml)
Protocol: (3) Enhancing effect on influenza HA vaccine (adjuvant activity)
A compound of the invention was dissolved or suspended in physiological saline (100 μg/ml). Separately, influenza HA vaccine (A/Bangkok/10/83 strain, H1N1) was dissolved in physiological saline (100 CCA/ml). These two solutions were mixed in an equivalent weight to make the test solution. Control is a solution excluded the compound of the invention from the test solution.
The test solution was administered into CDF1 mouse in a similar way to that of the test of enhancing action for hepatitis vaccine as mentioned above, to obtain primary and secondary response sera.

[5] = Stimulation effect on antibody producing cells (plaque numbers, Cunningham technique); format: in vivo, ICR mouse; conditions: for Plaque No.: ICR mouse, SRBC i.v. and compound 500 μg/ml, 0.2 ml i.v., splenic cells after 4 days; for Stimulation index: plaque number relative to control (saline) = 1
Protocol: (5) Stimulation effect on anti-body precluding cells
A solution of sheep […] (SRBC) in phosphate buffered physiological saline (5×10^7 cells/ml), 0.2 ml was injected into tail intravenous vein of ICR mouse (7 mice per group). At the same time, a solution of a compound of the invention in physiological saline (500 μg/ml), 0.2 ml was similarly injected. After 4 days, lien was picked up from the treated mouse to obtain splenic cells. Plaque numbers were measured by Cunningham technique.

SMILES | Cytostatic rate [1] [%] | Survival rate, Psud. aeruginosa [2] [%] | Anti HBs-ELISA unit, Primary response serum [3] | Anti HBs-ELISA unit, Secondary response serum [3] | Survival rate, E. coli (E. coli (JC-2)) [%] | Swelling of Foot-pad (BCG killed vaccine) [× 0.01 mm] | Survival rate (Meth A fibrosarcomas) [%] | Anti-influenza HA virus ELISA unit, Primary response serum [4] | Anti-influenza HA virus ELISA unit, Secondary response serum [4] | Plaque No. [5] | Stimulation index [5]
CCCCCCCCCCCCCC(=O)O[C@H](CCCCCCCCCCC)CC(=O)OC[C@H]1O[C@@H](S)[C@H](NC(C)=O)[C@@H](O[C@H](C)C(=O)N[C@@H](C)C(=O)N[C@H](CCC(=O)OC)C(N)=O)[C@@H]1O [Example 8, N-[[2-O-{2-Acetamido-2,3-dideoxy-6-O-[(3R)-3-tetradecanoyloxytetradecanoyl]-1-thio-β-D-glucopyranos-3-yl}-D-lactoyl]]-L-alanyl-D-isoglutamine methyl ester] | 31.6 ± 1.6 | 20 | 2,200 ELISA unit | 105,000 ELISA unit | 35 | 51.8 ± 11.0 | 5 | 2,100 ELISA unit | 22,000 ELISA unit | 8.63 ± 7.9 × 10^3 | 1.8
CCCCCCCCCCCCCCCC(=O)O[C@H](CCCCCCCCCCC)CC(=O)OC[C@H]1O[C@@H](S)[C@H](NC(C)=O)[C@@H](O[C@H](C)C(=O)N[C@@H](C)C(=O)N[C@H](CCC(=O)OC)C(N)=O)[C@@H]1O [Example 9, N-[[2-O-{2-Acetamido-2,3-dideoxy-6-O-[(3R)-3-hexadodecanoyloxytetradecanoyl]-1-thio-β-D-glucopyranos-3-yl}-D-lactoyl]]-L-alanyl-D-isoglutamine methyl ester] | 38.2 ± 2.2 | 15 | 3,400 ELISA unit | 150,000 ELISA unit | 40 | 49.1 ± 12.0 | 5 | 1,900 ELISA unit | 25,000 ELISA unit | 11.00 ± 10.1 × 10^3 | 2.3
